# From patent US8324280B2, “Treatment of prostate cancer with DDC inhibitor” (The University of British Columbia, priority 2008, dated 2012)
# How the values were obtained:
# LNCaP cells [1] = experiment: cAMP assay in LNCaP cells; type: cell-based, human; conditions: all concentrations; DA 15 minutes, 5-HT 10 minutes
# Protocol: (§1) PC3 and LNCaP cells were seeded in 12-well plates at a density of 1.5×10^5 cells/well. The next day, cells were gently washed three times with serum-free media to remove excess FBS and grown for a further 24 hours in the absence of serum. Cells were then stimulated with various concentrations of DA for 15 minutes or 5-HT for 10 minutes at 37° C. Cells were lysed and intracellular cAMP levels were determined using the cAMP Biotrak Enzymeimmunoassay System (Amersham Biosciences) following the manufacturer's instructions. Assays were performed in triplicate with two independent trials.
# AR [2] = experiment: AR transactivation assay (pARR3-tk-Luc) in AR transfected PC3 cells; type: cell-based, human
# From the text: (§2) PC3 and LNCaP cells were transfected, treated with R1881 and used for luciferase assays, as described previously. Briefly, human AR expression plasmid (pcDNA3.1-hAR) and AR-regulated luciferase reporters, pARR3-tk-Luc or pPSA-630 bp-Luc (−630/+12 bp of the 5′ PSA flanking region) {Snoek, 1998 #136}, were cotransfected into cells, along with DDC expression plasmid (pDEST12.2-DDC) or control empty vector (pDEST12.2). Firefly luciferase values were normalized to renilla luciferase (PRL-TK reporter; Promega Corp.) and expressed as relative luciferase units (RLU).
# Transactivation assays for AR were also performed in PC3 cells treated with dopamine (DA) and serotonin (5-HT, 5-hyroxytyrptamine), which were purchased from Sigma. As described above, cells were transfected with pcDNA3.1-hAR, pRL-TK-renilla and pARR3-tk-Luc reporter but DDC was excluded. Cells were then treated with or without 1 nM R1881 and varying concentrations of pure DA or 5-HT in 5% dextran-coated charcoal stripped FBS (DCC-FBS) for 24 hours before harvest and luciferase assay.
# PC3 cells = experiment: cAMP assay in PC3 cells; type: cell-based
# Protocol: as §1
# LNCaP cells [3] = experiment: MTS cell proliferation assay, androgen-dependent LNCaP cells; type: cell-based, human; conditions: 10 μM, 8 days
# Protocol: Cell proliferation assays were performed using the 3-(4,5-dimethylhiazol-2-yl)-5-(3-carboxymethoxyphenyl)-2-(4-sulfophenyl)-2H-tetrazolium Assay (MTS) according to the manufacturer's protocol, with minor modifications (Promega). LNCaP cells were plated in 96-well plates at a density of 3000 cells per well and incubated in RPMI medium containing 5% CSS for one day. On the following day, the DDC inhibitors, carbidopa (25 and 50 μM) and NSD-1015 (10 μM)±0.1 nM R1881 were added to each well in charcoal-stripped serum (CSS; Hyclone, VWR) RPMI media. The cells were harvested at days 0, 2, 4, 6 and 8, with a medium change every 3 days. Each time point was measured with 6 replicates.
# (§3) Student's t-test (two-sample equal variance) was used to evaluate statistically significant differences. All calculated p-values were two-sided and those less than 0.05 were considered statistically significant.
# DDC [4] = molecular target: T1, DDC (Homo sapiens, UniProt P20711); experiment: Dopamine ELISA on conditioned medium of PC3 cells overexpressing DDC; type: cell-based; conditions: 1 μM NSD-1015, 24 hours, 1 nM R1881
# T1 construct: expressed in transfected cells; host or cells: PC3 cells, co-transfected with pcDNA3.1-AR
# T1 sequence (P20711 1-480): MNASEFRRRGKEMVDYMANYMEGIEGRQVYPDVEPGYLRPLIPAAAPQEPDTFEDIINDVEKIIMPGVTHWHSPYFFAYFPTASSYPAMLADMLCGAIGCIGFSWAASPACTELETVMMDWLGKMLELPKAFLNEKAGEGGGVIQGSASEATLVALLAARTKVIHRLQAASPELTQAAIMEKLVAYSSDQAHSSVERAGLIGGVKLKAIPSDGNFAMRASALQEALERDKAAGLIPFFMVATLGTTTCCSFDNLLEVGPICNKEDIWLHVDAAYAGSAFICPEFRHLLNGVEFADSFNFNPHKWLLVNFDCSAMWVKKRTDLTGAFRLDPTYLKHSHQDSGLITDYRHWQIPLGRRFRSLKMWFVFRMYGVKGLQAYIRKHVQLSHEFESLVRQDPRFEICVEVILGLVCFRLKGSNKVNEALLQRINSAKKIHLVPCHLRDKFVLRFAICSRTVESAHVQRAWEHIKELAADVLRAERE
# Protocol: (§4) PC3 cells were seeded in 12-well plates at a density of 1.5×10^5 cells/well and transfected the following day with pcDNA3.1-AR and pDEST12.2-DDC or pDEST12.2 empty vector control, as described above for transactivation assays. The next day, media was changed to 5% DCC-FBS containing 1 nM R1881. Conditioned culture media was removed 24 hours later and stored at −80° C. A 100 μL volume of media was used for the competitive enzyme-linked immunosorbent assay (ELISA). Dopamine was assayed using the Dopamine Research Enzyme Immunoassay kit (Rocky Mountain Diagnostics) following the manufacturer's instructions. PC12 cells, used as a positive control, were grown to 70% confluency (12-well plates) and conditioned media was collected 24 hours later for assay, as above. Secreted DA levels from PC3 and PC12 cells were determined in the presence and absence of 1 μM NSD-1015 (3-hydroxybenzylhydrazine) DDC enzymatic inhibitor (Sigma). All ELISAs were performed in triplicate with two independent trials.
# C4-2 cells = experiment: MTS cell proliferation assay, androgen-independent C4-2 cells; type: cell-based, human; conditions: 10 μM, 6 days
# Protocol: Cell proliferation assays were performed using the 3-(4,5-dimethylhiazol-2-yl)-5-(3-carboxymethoxyphenyl)-2-(4-sulfophenyl)-2H-tetrazolium Assay (MTS) according to the manufacturer's protocol, with minor modifications (Promega). C4-2 cells were plated in 96-well plates at a density of 750 cells per well in RPMI medium containing 5% CSS for 1 day. On the following day, the DDC inhibitors, carbidopa (25 μM) and NSD-1015 (10 μM)±0.1 nM R1881 were added to each well in charcoal-stripped serum (CSS; Hyclone, VWR) RPMI media. The cells were harvested at days 0, 2, 4, and 6, with a medium change every 3 days. Each time point was measured with 6 replicates.
# as §3
# DDC [5] = molecular target: T2, DDC (Rattus norvegicus, UniProt P14173); experiment: Dopamine ELISA on conditioned medium of PC12 cells; type: cell-based; conditions: 1 μM NSD-1015, 24 hours
# T2 construct: PC12 cells were not transfected or treated with R1881 but were incubated 24 hours with or without NSD-1015; endogenous in cells; host or cells: PC12 rat adrenal pheochromocytoma cells
# T2 sequence (P14173 1-480): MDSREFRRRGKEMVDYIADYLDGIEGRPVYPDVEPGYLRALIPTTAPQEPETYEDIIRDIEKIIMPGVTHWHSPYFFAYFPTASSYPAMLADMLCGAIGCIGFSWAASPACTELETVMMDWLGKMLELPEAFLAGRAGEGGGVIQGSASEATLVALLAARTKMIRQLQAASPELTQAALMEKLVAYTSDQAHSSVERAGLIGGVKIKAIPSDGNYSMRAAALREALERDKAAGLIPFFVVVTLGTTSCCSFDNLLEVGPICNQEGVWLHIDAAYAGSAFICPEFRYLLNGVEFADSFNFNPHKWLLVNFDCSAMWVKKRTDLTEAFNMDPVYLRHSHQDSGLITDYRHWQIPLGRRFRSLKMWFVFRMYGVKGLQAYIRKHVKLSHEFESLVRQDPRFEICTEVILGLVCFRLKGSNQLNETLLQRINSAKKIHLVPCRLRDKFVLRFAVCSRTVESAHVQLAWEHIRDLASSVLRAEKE
# Protocol: as §4
# AR [6] = experiment: AR transactivation assay (pARR3-tk-Luc) in LNCaP cells; type: cell-based, human; conditions: endogenous AR, 24 hours
# From the text: as §2
# AR [7] = experiment: Cell-based ligand binding assay in HeLa-AR cells (cytosol); parameters: species or system human
# Protocol: HeLa-AR cells were cultured for 24-48 hours in DMEM containing 5% DCC-FBS and seeded onto 6 cm plates at a density of 1×10^6 cells/plate. After 5 hours, cells were transfected with either pDEST12.2-DDC or pDEST12.2 control vector (5 μg/plate) using Lipofectin Reagent (Invitrogen). The next day, transfection mix was changed to DMEM supplemented with 5% DCC-FBS containing increasing concentrations of [^3H]-R1881 (0-10 nM). To determine non-specific binding, hormone treatments were carried out in the presence (NSB) and absence (total binding) of excess cold 1000 nM R1881. After 24 hours of incubation with hormone, cells were harvested as described previously. […]
# Cytosolic and nuclear extracts were then thawed and incubated for 6 hours with agarose beads conjugated to FLAG monoclonal antibody (Sigma, USA). […] Beads were washed with Buffer D (20 mM HEPES pH 7.9, 20% glycerol, 0.3 M KCl, 0.2 mM EDTA, 0.05% NP-40, 0.5 mM DTT, 0.5 mM PMSF) and specifically bound ligand (total binding—NSB) to the immunopreciptated FLAG-tagged AR protein was determined by measuring the levels of tritium (dpm) in bead resuspensions using a scintillation counter. All measured bound dpm values were normalized to corresponding Western blot AR protein band intensities. Results were expressed as the relative (normalized to the level of AR protein) mean bound ligand of three replicates (±SEM).
# AR ligand binding domain = molecular target: T3, AR ligand binding domain (Rattus norvegicus, UniProt P15207); experiment: In vitro hydroxylapatite pulldown ligand binding assay
# T3 construct: purchased PanVera
# T3 sequence (P15207 651-882 limits assumed): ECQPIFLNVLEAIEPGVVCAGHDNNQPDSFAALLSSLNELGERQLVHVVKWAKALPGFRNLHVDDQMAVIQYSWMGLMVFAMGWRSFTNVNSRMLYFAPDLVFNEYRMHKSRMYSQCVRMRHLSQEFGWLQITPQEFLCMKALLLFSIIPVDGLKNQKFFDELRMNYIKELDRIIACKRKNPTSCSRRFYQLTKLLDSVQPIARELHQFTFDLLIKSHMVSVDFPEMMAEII
# Protocol: Recombinant rat thioredoxin-fused AR ligand binding domain (PanVera, 1.390 mg/mL, 48.4 kDa), which is identical to the human AR-LBD, was used for hydroxylapatite (HAP) pulldown ligand binding assays at R1881 concentrations of 0 to 1000 nM {Portigal, 2002 #86}. Initially, his-tagged-DDC protein was expressed in BL21-SI bacteria, containing the pDEST17-His-DDC plasmid, and purified using a nickel-nitrilotriacetic acid (Ni-NTA)-agarose column according to the manufacturer's protocol (Qiagen). Purified AR-LBD was diluted to a final concentration of 1 μg/mL in binding buffer (50 mM Tris pH 7.5, 10% glycerol, 0.8 M NaCl, 1 mg/mL BSA and 2 mM dithiothreitol), containing tracer 20 nM [^3H]-R1881 (NEN Life Science Products, 75.2 Ci/mmol, 1 mCi/mL). In order to minimize the use of radioactive ligand, supplemental cold R1881 was added to the assay mix to achieve the high 100 nM and 1000 nM total R1881 concentrations. Assays were carried out in the absence and presence of 0.5 μg of His-DDC protein, which was added directly to the 1 mL assay mix. Following overnight incubation at 4° C., a 50% HAP slurry (Calbiochem Fast Flow hydroxylapatite in […] pH 8.0 and 1 mM EDTA) was added to the assay, pellets were incubated on ice for 10 minutes, and then washed four times with wash buffer (40 mM Tris pH 7.5, 100 mM KCl, 1 mM EDTA and 1 mM EGTA). HAP pellets were resuspended in ethanol and bound [^3H]-R1881 was measured (disintegrations per minute, dpm) using a Beckman LS 6500 scintillation counter.
# To determine non-specific binding (NSB) to the HAP matrix, control pulldown assays were carried out using an assay mix that lacked AR-LBD. […] NSB values were subtracted from sample measurements for determination of specific binding. The total dpm per assay was determined by measuring a known amount of [^3H]-R1881 and normalizing to the total assay volume (1 mL). All assays were carried out in triplicate and the pmole bound [^3H]-R1881/mg AR-LBD protein was calculated by using the measured dpm of tracer 20 nM [^3H]-R1881. Calculated values were then extrapolated to determine total ligand bound at the 10 nM, 100 nM and 1000 nM R1881 concentrations. Results were expressed as the mean total pmole bound R1881/mg AR-LBD protein (±SEM).
# [8] = presence of hormone (0.1 nM R1881)
compound,measurement,setting,value
"NCCc1c[nH]c2ccc(O)cc12 [5-HT, 5-hyroxytyrptamine]",intracellular cAMP response,LNCaP cells [1],did not increase cAMP levels
same,AR activity in the absence or presence of ligand,"AR [2]; 0-100 nM, with or without 1 nM R1881, 24 hours",did not alter AR activity
same,intracellular cAMP response,PC3 cells; 5-HT 10 minutes,did not increase cAMP levels
"NCCc1ccc(O)c(O)c1 [DA, dopamine]",intracellular cAMP response,LNCaP cells [1],did not induce a significant cAMP response
same,repression of ligand-dependent AR transcription,"AR [2]; highest 200 μM concentration, 1 nM R1881, 24 hours",2.2 fold
same,ligand-independent activation of AR,"AR [2]; without R1881, 24 hours",not affected
same,increase in intracellular cAMP versus untreated cells,"PC3 cells; maximum 200 μM concentration, 15 minutes",~52 fold
"NNCc1cccc(O)c1 [NSD-1015, 3-hydroxybenzylhydrazine]",decrease in cell growth,LNCaP cells [3]; absence of hormone,1.43 fold
same,decline in cell growth,LNCaP cells [3]; [8],1.15 fold
same,secreted DA level,DDC [4],220±85 pg/mL CM
same,decrease in cell growth,C4-2 cells; absence of hormone,1.20 fold
same,decline in cell growth,C4-2 cells; [8],1.24 fold
same,reduction of DA levels,DDC [5],2.6 fold
same,secreted DA level,DDC [5],3561±2032 pg/mL CM
C[C@]1(O)CC[C@H]2[C@@H]3CCC4=CC(=O)CCC4=C3C=C[C@@]21C [R1881],minimum concentration required for activation of AR transcription,AR [6],0.1 nM
same,minimum concentration required for activation of AR transcription,"AR [2]; PC3 cells transfected with AR, 24 hours",0.1 nM
same,amount of R1881 required to reach the control Bmax,AR [7]; presence of DDC (overexpression),0.56 nM
same,R1881 concentration at which control Bmax occurred,AR [7]; vector control,1 nM
same,available ligand bound to AR-LBD (ligand-binding efficiency),"AR ligand binding domain; 20 nM [3H]-R1881, absence and presence of His-DDC",about 5%
same,ligand-binding efficiency,"AR ligand binding domain; 100 nM R1881, absence of DDC",14%
same,total available ligand bound to AR-LBD,"AR ligand binding domain; 100 nM R1881, with His-DDC",24.5%
same,ligand-binding efficiency,"AR ligand binding domain; 1000 nM R1881, absence of DDC",54%
same,total available ligand bound to AR-LBD,"AR ligand binding domain; 1000 nM R1881, with His-DDC",92%
same,R1881 concentration required to 50% saturate total AR-LBD protein,AR ligand binding domain; absence of His-DDC,883 nM
same,R1881 concentration required to 50% saturate total AR-LBD protein,AR ligand binding domain; presence of His-DDC (0.5 μg/assay),425 nM
same,bound R1881,"AR ligand binding domain; tracer 20 nM [3H]-R1881, AR-LBD control",895±93 pmole bound R1881/mg AR-LBD
same,bound R1881,"AR ligand binding domain; tracer 20 nM [3H]-R1881, AR-LBD+His-DDC",937±111 pmole bound R1881/mg AR-LBD
